Assay results as given in patent US20150105252A1, “SUBSTITUTED PYRAZOLES AS HERBICIDES” (E I DU PONT DE NEMOURS AND COMPANY, priority 2013, published 2015).

Legend:
wheat [1] = assay: Test A postemergence; type: in vivo, Triticum aestivum; conditions: Postemergence
Method in brief: (§1)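 Seeds were sown in a loam soil–sand blend and given a directed soil spray preemergence; postemergence plants at 2–10 cm, one- to two-leaf stage, were sprayed with compound in non-phytotoxic solvent with surfactant. After about 10 days in a greenhouse, injury was visually rated against untreated controls (0 = no effect, 100 = complete control).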

corn [2] = assay: Test A preemergence; type: in vivo, Zea mays; conditions: preemergence; for Corn plant response rating (0 to 100 scale): 125 g ai/ha, visual injury approx. 10 days after treatment; for Corn plant response rating: 500 g ai/ha, visual injury after approx. 10 days, 0 to 100 scale (0 no effect, 100 complete control)
Method in brief: as §1

crabgrass, large [3] = assay: Test A preemergence; type: in vivo, Digitaria sanguinalis; conditions: preemergence; for Crabgrass, Large plant response rating (0 to 100 scale): 125 g ai/ha, visual injury approx. 10 days after treatment; for Crabgrass, Large plant response rating: 500 g ai/ha, visual injury after approx. 10 days, 0 to 100 scale (0 no effect, 100 complete control)
Method in brief: as §1

velvetleaf [4] = assay: Test A postemergence; type: in vivo, Abutilon theophrasti; conditions: Postemergence
Method in brief: as §1

sedge, umbrella = assay: Test B flood; type: in vivo, Cyperus difformis; conditions: 250 g ai/ha, visual rating on 0 to 100 scale (0 no effect, 100 complete control), 13 to 15 days
Method in brief: (§2)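 Each compound is applied to the floodwater of pots holding 2-leaf seedlings, water standing 3 cm over the soil throughout. Plants stay in a greenhouse 13 to 15 days before visual scoring against controls from 0 (no effect) to 100 (complete control).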

ducksalad = assay: Test B flood; type: in vivo, Heteranthera limosa; conditions: 250 g ai/ha, visual rating on 0 to 100 scale (0 no effect, 100 complete control), 13 to 15 days
Method in brief: as §2

morningglory [5] = assay: Test A preemergence; type: in vivo, Ipomoea spp.; conditions: preemergence, 125 g ai/ha, visual injury approx. 10 days after treatment
Method in brief: as §1

foxtail, giant [6] = assay: Test A preemergence; type: in vivo, Setaria faberii; conditions: preemergence; for Foxtail, Giant plant response rating (0 to 100 scale): 125 g ai/ha, visual injury approx. 10 days after treatment; for Foxtail, Giant plant response rating: 500 g ai/ha, visual injury after approx. 10 days, 0 to 100 scale (0 no effect, 100 complete control)
Method in brief: as §1

foxtail, giant [7] = assay: Test A postemergence; type: in vivo, Setaria faberii; conditions: Postemergence
Method in brief: as §1

barnyardgrass [8] = assay: Test A postemergence; type: in vivo, Echinochloa crus-galli; conditions: Postemergence
Method in brief: as §1

pigweed [9] = assay: Test A preemergence; type: in vivo, Amaranthus retroflexus; conditions: preemergence, 125 g ai/ha, visual injury approx. 10 days after treatment
Method in brief: as §1

pigweed [10] = assay: Test A postemergence; type: in vivo, Amaranthus retroflexus; conditions: Postemergence
Method in brief: as §1

crabgrass, large [11] = assay: Test A postemergence; type: in vivo, Digitaria sanguinalis; conditions: Postemergence
Method in brief: as §1

barnyardgrass [12] = assay: Test B flood; type: in vivo, Echinochloa crus-galli; conditions: 250 g ai/ha, visual rating on 0 to 100 scale (0 no effect, 100 complete control), 13 to 15 days
Method in brief: as §2

wheat [13] = assay: Test A preemergence; type: in vivo, Triticum aestivum; conditions: preemergence, 125 g ai/ha, visual injury approx. 10 days after treatment
Method in brief: as §1

morningglory [14] = assay: Test A postemergence; type: in vivo, Ipomoea spp.; conditions: Postemergence
Method in brief: as §1

velvetleaf [15] = assay: Test A preemergence; type: in vivo, Abutilon theophrasti; conditions: preemergence, 125 g ai/ha, visual injury approx. 10 days after treatment
Method in brief: as §1

corn [16] = assay: Test A postemergence; type: in vivo, Zea mays; conditions: Postemergence
Method in brief: as §1

barnyardgrass [17] = assay: Test A preemergence; type: in vivo, Echinochloa crus-galli; conditions: preemergence; for Barnyardgrass plant response rating (0 to 100 scale, 0 is no effect, 100 is complete control): 125 g ai/ha, visual injury approx. 10 days after treatment; for Barnyardgrass plant response rating: 500 g ai/ha, visual injury after approx. 10 days, 0 to 100 scale (0 no effect, 100 complete control)
Method in brief: as §1

rice = assay: Test B flood; type: in vivo, Oryza sativa; conditions: 250 g ai/ha, visual rating on 0 to 100 scale (0 no effect, 100 complete control), 13 to 15 days
Method in brief: as §2

[18] = 125 g ai/ha, 0 to 100 scale, 0 no effect, 100 complete control
[19] = 500 g ai/ha, 0 to 100 scale (0 no effect, 100 complete control)

| SMILES | Wheat plant response rating (wheat [1]; [18]) | Wheat plant response rating (wheat [1]; [19]) | Corn plant response rating (0 to 100 scale) (corn [2]) | Corn plant response rating (corn [2]) | Crabgrass, Large plant response rating (0 to 100 scale) (crabgrass, large [3]) | Crabgrass, Large plant response rating (crabgrass, large [3]) | Velvetleaf plant response rating (velvetleaf [4]; [18]) | Velvetleaf plant response rating (velvetleaf [4]; [19]) | Plant response rating, Sedge, Umbrella (sedge, umbrella) | Plant response rating, Ducksalad (ducksalad) | Morningglory plant response rating (0 to 100 scale) (morningglory [5]) | Foxtail, Giant plant response rating (0 to 100 scale) (foxtail, giant [6]) | Foxtail, Giant plant response rating (foxtail, giant [6]) | Foxtail, Giant plant response rating (foxtail, giant [7]; [18]) | Foxtail, Giant plant response rating (foxtail, giant [7]; [19]) | Barnyardgrass plant response rating (barnyardgrass [8]; [18]) | Barnyardgrass plant response rating (barnyardgrass [8]; [19]) | Pigweed plant response rating (0 to 100 scale) (pigweed [9]) | Pigweed plant response rating (pigweed [10]; [18]) | Pigweed plant response rating (pigweed [10]; [19]) | also measured |
| --- | --- | --- | --- | --- | --- | --- | --- | --- | --- | --- | --- | --- | --- | --- | --- | --- | --- | --- | --- | --- | --- |
| COCc1cc(C(=O)NCC(F)(F)F)nn1Cc1cc(C(F)(F)C(F)(F)F)nn1C [Compound 225] | 0 | 0 | 0 | 20 | 20 | 90 | 20 | 30 | 50 | 55 | 30 | 20 | 70 | 10 | 60 | 10 | 30 | 20 | 0 | 0 | Crabgrass, Large plant response rating (crabgrass, large [11]; [18]): 40; Crabgrass, Large plant response rating (crabgrass, large [11]; [19]): 70; Plant response rating, Barnyardgrass (barnyardgrass [12]): 0; Wheat plant response rating (0 to 100 scale) (wheat [13]): 0; Morningglory plant response rating (morningglory [14]; [18]): 10; Morningglory plant response rating (morningglory [14]; [19]): 60; Velvetleaf plant response rating (0 to 100 scale) (velvetleaf [15]): 0; Corn plant response rating (corn [16]; [18]): 10; Corn plant response rating (corn [16]; [19]): 30; Barnyardgrass plant response rating (0 to 100 scale, 0 is no effect, 100 is complete control) (barnyardgrass [17]): 10; Barnyardgrass plant response rating (barnyardgrass [17]): 80; Plant response rating, Rice (rice): 0 |
| CCc1cc(C(=O)NCC(F)(F)F)nn1Oc1cccc(C(F)(F)F)c1 [Compound 217] | 0 | 0 | 0 | 0 | 50 | 90 | 0 | 30 | 0 | 0 | 0 | 0 | 40 | 0 | 30 | 0 | 20 | 20 | 20 | 70 | Crabgrass, Large plant response rating (crabgrass, large [11]; [18]): 20; Crabgrass, Large plant response rating (crabgrass, large [11]; [19]): 70; Plant response rating, Barnyardgrass (barnyardgrass [12]): 0; Wheat plant response rating (0 to 100 scale) (wheat [13]): 0; Morningglory plant response rating (morningglory [14]; [18]): 20; Morningglory plant response rating (morningglory [14]; [19]): 70; Velvetleaf plant response rating (0 to 100 scale) (velvetleaf [15]): 0; Corn plant response rating (corn [16]; [18]): 0; Corn plant response rating (corn [16]; [19]): 20; Barnyardgrass plant response rating (0 to 100 scale, 0 is no effect, 100 is complete control) (barnyardgrass [17]): 0; Barnyardgrass plant response rating (barnyardgrass [17]): 20; Plant response rating, Rice (rice): 0 |
| CCc1cc(C(=O)NCC(F)(F)F)nn1Oc1cccc(C(F)(F)F)c1 [Compound 218] | 0 | 10 | 0 | 0 | 10 | 80 | 0 | 40 | 0 | 0 | 0 | 0 | 40 | 20 | 30 | 0 | 20 | 0 | 50 | 80 | Crabgrass, Large plant response rating (crabgrass, large [11]; [18]): 20; Crabgrass, Large plant response rating (crabgrass, large [11]; [19]): 40; Plant response rating, Barnyardgrass (barnyardgrass [12]): 0; Wheat plant response rating (0 to 100 scale) (wheat [13]): 0; Morningglory plant response rating (morningglory [14]; [18]): 50; Morningglory plant response rating (morningglory [14]; [19]): 100; Velvetleaf plant response rating (0 to 100 scale) (velvetleaf [15]): 0; Corn plant response rating (corn [16]; [18]): 10; Corn plant response rating (corn [16]; [19]): 20; Barnyardgrass plant response rating (0 to 100 scale, 0 is no effect, 100 is complete control) (barnyardgrass [17]): 0; Barnyardgrass plant response rating (barnyardgrass [17]): 40; Plant response rating, Rice (rice): 0 |
